Experimental data: publication PMC10023787, “Trio-pharmacophore DNA-encoded chemical library for simultaneous selection of fragments and linkers” (Nature Communications, 2023)
Like-named read-outs stand apart in the source and are kept apart here.

What was measured:
MMP-9 = target: T1, MMP-9 (Homo sapiens, UniProt P14780); assay: MMP-9 inhibition assay (fluorogenic peptide substrate); format: biochemical; conditions: for remaining activity at 0.078016 µM: fragment concentration 0.078016 µM; for remaining activity at 0.39008 µM: fragment concentration 0.39008 µM; for remaining activity at 1.9504 µM: fragment concentration 1.9504 µM; for remaining activity at 9.752 µM: fragment concentration 9.752 µM; for inhibitory effect: in words; for IC50: mean ± SE, n.d: not detected, Fig. 5e prints no unit, µM, read-out: IC50
T1 construct: purchased Sino Biological 10327-HNAH
Procedure, shortened: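 Hydrolysis of DNP-Pro-Leu-Gly-Met-Trp-Ser-Arg (25 μM final) was tracked kinetically at em 360 nm over 30 min. Enzymes, APMA-activated and at 10 nM (MMP-9) or 6.5 nM (MMP-2) final, sat 30 min at RT with inhibitor in pH 7.5 Tris buffer with CaCl2 and Brij 35 first. Logistic fitting of Vmax against concentration gave IC50, in triplicate.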

MMP-2 = target: T2, MMP-2 (Homo sapiens, UniProt P08253); assay: Dynamic dual-pharmacophore DEL selection against MMP-2, NGS decoding; format: binding; conditions: MMP2 selection; for MMP2 3L Enrichment Fold: 3L library (Supplementary fig 13); for MMP2 3L Count: 3L library; for MMP2 3L Count / MMP2 5L Count: sequence count (Supplementary fig 13); for MMP2 5L Enrichment Fold: 5L library (Supplementary fig 13); for MMP2 5L Count: 5L library
T2 construct: purchased Sino Biological 10082-HNAH
T2 sequence (P08253 110-660): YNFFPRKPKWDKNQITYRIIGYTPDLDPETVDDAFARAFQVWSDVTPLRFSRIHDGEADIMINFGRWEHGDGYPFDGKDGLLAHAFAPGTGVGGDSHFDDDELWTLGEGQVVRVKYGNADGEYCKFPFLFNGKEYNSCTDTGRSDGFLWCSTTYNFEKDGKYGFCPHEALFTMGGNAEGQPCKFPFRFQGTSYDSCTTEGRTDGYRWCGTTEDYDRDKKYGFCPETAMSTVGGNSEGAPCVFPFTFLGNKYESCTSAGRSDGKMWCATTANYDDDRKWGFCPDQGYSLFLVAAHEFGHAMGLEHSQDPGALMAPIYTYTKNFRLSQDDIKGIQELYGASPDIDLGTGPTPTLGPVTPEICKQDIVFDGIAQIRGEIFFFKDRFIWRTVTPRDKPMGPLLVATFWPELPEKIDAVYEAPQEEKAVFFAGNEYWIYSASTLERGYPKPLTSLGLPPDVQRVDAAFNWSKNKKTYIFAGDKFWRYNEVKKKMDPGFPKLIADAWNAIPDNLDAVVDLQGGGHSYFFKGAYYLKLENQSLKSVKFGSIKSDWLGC
Source text: Matrix metalloproteinases (MMPs) are zinc-dependent endopeptidases capable of degrading and remodeling extracellular matrix components[46],[47]. They are attractive therapeutic targets as high expression levels were detected in various diseases, such as inflammatory diseases, and at different stages of cancers, including metastasis, invasion, and angiogenesis[47]–[53]. As shown in Supplementary Fig. 3c, we performed selections against the two gelatinases (human MMP-2 and human MMP-9) to identify binding fragments for later design and synthesis of small molecule inhibitors. After selection, the three sub-libraries were decoded, and the enrichment was calculated by dividing the post-selection fraction (count/total counts) by the pre-selection fraction (Fig. 4a and Supplementary Fig. 13).
4 µg of MMP-2/MMP-9 was dissolved in 100 µl of selection buffer containing 25 mM Tris-base, 10 mM CaCl2, 150 mM NaCl, 0.05% Tween 20, pH 7.5. 10 µl of 4-Aminophenylmercuric acetate (APMA) (100 mM) solution was added to the protein solution and incubated at 37 °C for 1 h. After activation, the solution was added on top of 40 µl pre-washed Ni-NTA resin and incubated for 30 min on a rotary shaker. The supernatant was discarded, and the resin was washed three times with the selection buffer.
For each independent selection, three sub-libraries were mixed in the selection buffer with a final concentration of 40 nM of each sub-library in 100 µl. The mixture was heat denatured at 90 °C for 1 min and slowly cooled down to allow the formation of the trio-pharmacophore library. The dynamic dual-pharmacophore DEL was provided by DyNAbind GmbH (Merck, DYNA001).
The assembled library was incubated with the protein-bound solid support for 2 h at RT on a rotary shaker. In parallel, selection on bare solid support served as the negative control to exclude promiscuous binders on the resin. After panning, the supernatant was discarded, and the resin was washed three times with 1 ml selection buffer. Finally, 100 µl of 50 mM Tris buffer, pH 7.4 was added to resuspend the resin and the resin was incubated at 95 °C for 5 min to denature the protein, release, and collect the bound library members.
The eluted library members were subjected to sample preparation for NGS. NGS preparation was achieved by two-step PCR. First, the individual selection was indexed using primers containing unique sequences corresponding to each selection. The amplified product was purified from 2% agarose gel. Second, the purified DNA from all selections were pooled in equal amount and subjected to the 2nd PCR step to attach sequences compatible with the NGS flow cell and the sequencing primers. NGS was performed by Novogene UK with Novaseq 6000. Raw data files (fastq files) obtained were decoded using a custom python script and excel. The sequence reads corresponding to each sample was retrieved by searching for the correct index unique to each selection. Then, the code region was extracted from each sequence and assigned to the corresponding identity. The count of each code in each selection sample was obtained by looping through the total reads and counting the occurrence of each code. The enrichment fold of each compound was calculated by first, dividing the count by the total count to get the abundance, second, the abundance after the selection was divided by the abundance of pre-selection to reflect the distribution change of the compound. Next, the enrichment fold was plotted against the count for each member of the library to give the scatter plots as in Fig. 4.

[1] = Figure 5b, read-out: Normalized activity (Mean)
[2] = Figure 5b, fragment concentration 48.76 µM, read-out: Normalized activity (Mean)
[3] = Figure 5b, fragment concentration 243.8 µM, read-out: Normalized activity (Mean)
[4] = Figure 5b, fragment concentration 1219 µM, read-out: Normalized activity (Mean)
[5] = MMP-9, concentration 0.08 µM, read-out: Mean (MMP-9 dose-response, Supplementary fig 15)
[6] = MMP-9, concentration 0.39 µM, read-out: Mean (MMP-9 dose-response, Supplementary fig 15)
[7] = MMP-9, concentration 1.95 µM, read-out: Mean (MMP-9 dose-response, Supplementary fig 15)
[8] = MMP-9, concentration 9.75 µM, read-out: Mean (MMP-9 dose-response, Supplementary fig 15)
[9] = MMP-9, concentration 48.76 µM, read-out: Mean (MMP-9 dose-response, Supplementary fig 15)
[10] = MMP-9, concentration 243.80 µM, read-out: Mean (MMP-9 dose-response, Supplementary fig 15)
[11] = MMP-9, concentration 1219.00 µM, read-out: Mean (MMP-9 dose-response, Supplementary fig 15)

T1 sequence (P14780 107-707 limits assumed): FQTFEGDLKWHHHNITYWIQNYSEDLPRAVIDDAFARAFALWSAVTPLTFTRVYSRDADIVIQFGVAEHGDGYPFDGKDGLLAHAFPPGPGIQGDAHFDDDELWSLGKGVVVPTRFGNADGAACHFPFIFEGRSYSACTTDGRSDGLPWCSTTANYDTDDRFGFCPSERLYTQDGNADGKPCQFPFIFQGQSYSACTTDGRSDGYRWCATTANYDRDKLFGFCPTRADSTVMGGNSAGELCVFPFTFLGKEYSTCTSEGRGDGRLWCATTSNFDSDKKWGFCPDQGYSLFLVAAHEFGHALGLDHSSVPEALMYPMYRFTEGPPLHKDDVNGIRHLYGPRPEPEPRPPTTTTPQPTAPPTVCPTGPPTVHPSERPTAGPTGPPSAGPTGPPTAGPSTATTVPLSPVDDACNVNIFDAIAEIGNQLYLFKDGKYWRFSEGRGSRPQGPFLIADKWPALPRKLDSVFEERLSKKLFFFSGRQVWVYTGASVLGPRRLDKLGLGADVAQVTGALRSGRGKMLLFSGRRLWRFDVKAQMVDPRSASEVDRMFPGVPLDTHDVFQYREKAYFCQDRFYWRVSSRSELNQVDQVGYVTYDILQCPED

remaining activity at 0.078016 µM (MMP-9; [1]) [%] | remaining activity at 0.39008 µM (MMP-9; [1]) [%] | remaining activity at 1.9504 µM (MMP-9; [1]) [%] | remaining activity at 9.752 µM (MMP-9; [1]) [%] | remaining activity at 48.76 µM (MMP-9; [2]) [%] | remaining activity at 243.8 µM (MMP-9; [3]) [%] | remaining activity at 1219 µM (MMP-9; [4]) [%] | remaining activity at 0.08 µM (MMP-9; [5]) [%] | remaining activity at 0.39 µM (MMP-9; [6]) [%] | remaining activity at 1.95 µM (MMP-9; [7]) [%] | remaining activity at 9.75 µM (MMP-9; [8]) [%] | remaining activity at 48.76 µM (MMP-9; [9]) [%] | remaining activity at 243.8 µM (MMP-9; [10]) [%] | remaining activity at 1219 µM (MMP-9; [11]) [%] | inhibitory effect (MMP-9) | IC50 (MMP-9) [µM] | MMP2 3L Enrichment Fold (MMP-2) | MMP2 3L Count (MMP-2) | MMP2 5L Enrichment Fold (MMP-2) | MMP2 5L Count (MMP-2) | SMILES | also measured
99.9 | 97 | 89.6 | 87.1 | 91 | 37.1 | 6.67 | 99.9 | 97 | 89.5 | 87.1 | 91 | 37.1 | 6.67 | high µM range | 206 ± 25.4 | 0.8647 | 991 | 3.023 | 6628 | Cc1cc(=O)[nH]c(-n2nc(C)c(CCC(=O)O)c2C)n1 [Compound 693] | –
99.6 | 103 | 88 | 89.2 | 88.6 | 78.5 | 32.5 | 99.6 | 103 | 88 | 89.2 | 88.6 | 78.5 | 32.5 | high µM | 784 ± 115 | 3.194 | 2558 | 0.7494 | 713 | NCc1c[nH]nn1 [Compound 787] | remaining activity at 0.08 µM (MMP-9; MMP-9, concentration 0.08 µM, read-out: Mean (MMP-9, Supplementary fig 16)): 99.6%; remaining activity at 0.39 µM (MMP-9; MMP-9, concentration 0.39 µM, read-out: Mean (MMP-9, Supplementary fig 16)): 103%; remaining activity at 1.95 µM (MMP-9; MMP-9, concentration 1.95 µM, read-out: Mean (MMP-9, Supplementary fig 16)): 88%; remaining activity at 9.75 µM (MMP-9; MMP-9, concentration 9.75 µM, read-out: Mean (MMP-9, Supplementary fig 16)): 89.2%; remaining activity at 48.76 µM (MMP-9; MMP-9, concentration 48.76 µM, read-out: Mean (MMP-9, Supplementary fig 16)): 88.6%; remaining activity at 243.8 µM (MMP-9; MMP-9, concentration 243.80 µM, read-out: Mean (MMP-9, Supplementary fig 16)): 78.5%; remaining activity at 1219 µM (MMP-9; MMP-9, concentration 1219.00 µM, read-out: Mean (MMP-9, Supplementary fig 16)): 32.5%; remaining activity at 0.08 µM (MMP-9; MMP-9, concentration 0.08 µM, read-out: Mean (dose-response, Supplementary fig 17)): 99.6%; remaining activity at 0.39 µM (MMP-9; MMP-9, concentration 0.39 µM, read-out: Mean (dose-response, Supplementary fig 17)): 103%; remaining activity at 1.95 µM (MMP-9; MMP-9, concentration 1.95 µM, read-out: Mean (dose-response, Supplementary fig 17)): 88%; remaining activity at 9.75 µM (MMP-9; MMP-9, concentration 9.75 µM, read-out: Mean (dose-response, Supplementary fig 17)): 89.2%; remaining activity at 48.76 µM (MMP-9; MMP-9, concentration 48.76 µM, read-out: Mean (dose-response, Supplementary fig 17)): 88.6%; remaining activity at 243.8 µM (MMP-9; MMP-9, concentration 243.80 µM, read-out: Mean (dose-response, Supplementary fig 17)): 78.5%; remaining activity at 1219 µM (MMP-9; MMP-9, concentration 1219.00 µM, read-out: Mean (dose-response, Supplementary fig 17)): 32.5%
